# According to publication PMC12566511, “The Evaluation of (1R,4R,7R,10R)-α,α′,α″,α‴-Tetramethyl-1,4,7,10-tetraazacyclododecane-1,4,7,10-tetraacetic Acid (DOTMA) as a Chelator for Zirconium-89” (Molecules, 2025):
# Where two headings read alike, the source gives them in different places.
# Legend:
# [1] = Solubility of the non-radioactive complex in conventional solvents; type: physicochemical; details: every conventional solvent tested
# Excerpt: As with our previous studies and to assist in our understanding of the chemical reactivity of this ligand with ^89Zr, we attempted to characterize the Zr-DOTMA complex. Unfortunately, the synthesis of Zr-DOTMA was problematic. […] This insolubility prevented any rigorous characterization using standard analytical techniques such as solution NMR, mass spectrometry, or single crystal X-ray diffraction analysis. Thus, to provide some characterization data, we completed solid-state NMR of Zr-DOTMA and compared its spectrum with that of the DOTMA ligand (Figures S1 and S2). Briefly, the C-13 spectrum of the DOTMA ligand is composed of four groups of resonances consistent with CH3, CH2, CH, and COO^−. The spectra are assigned as COO^− near 182 ppm, CH at 58 ppm, CH2 centered near 48 ppm, and four methyl resonances near 9.5 ppm. The CH3 is attached to a chiral carbon atom at a stereogenic center. In contrast to the ligand spectra, the Zr-DOTMA spectrum is comprised of a major crystalline phase, apparently with Z’ = 1 having resonances consistent with CH3, CH2, CH, and COO at 11, 47, 66, and 179 ppm, respectively. It also has minor resonances near 52, 62, and 174 ppm. The resonances near 174 are composed of at least three unique carbons but, based on linewidth, appear to be crystalline in nature. The methyl groups are magnetically inequivalent.
# [2] = cited from earlier work
# [3] = set-up: method as in PMID 28451334; details: normal mice, cited from earlier work
compound,measurement,setting,value
"C[C@H](C(=O)[O-])N1CCN([C@H](C)C(=O)[O-])CCN([C@H](C)C(=O)[O-])CCN([C@H](C)C(=O)[O-])CC1.[Zr+4] [Zr-DOTMA, Zirconium (1R,4R,7R,10R)-α,α′,α″,α‴-Tetramethyl-1,4,7,10-tetraazacyclododecane-1,4,7,10-tetraacetic Acid]",solubility (in words),[1],insoluble in every conventional solvent tested
CC(=O)N([O-])CCCCCNC(=O)CCC(=O)N([O-])CCCCCNC(=O)CCC(=O)N([O-])CCCCCN.[89Zr+4] [[^89Zr]Zr-DFO],LogP,[2]; previously reported results,−2.83 ± 0.03
same,"bone (72 h p.i., %ID/g ± SD)",[3]; bone,0.079 ± 0.006 %ID/g
same,"kidney (72 h p.i., %ID/g ± SD)",[3]; kidney,0.69 ± 0.09 %ID/g
same,"liver (72 h p.i., %ID/g ± SD)",[3]; liver,0.066 ± 0.009 %ID/g
O=C([O-])CN1CCN(CC(=O)[O-])CCN(CC(=O)[O-])CCN(CC(=O)[O-])CC1.[89Zr+4] [[^89Zr]Zr-DOTA],LogP,[2]; value reported,−3.80 ± 0.04
O=C([O-])CN1CCN(CC(=O)[O-])Cc2cccc(n2)CN(CC(=O)[O-])CC1.[89Zr+4] [[^89Zr]Zr-PCTA],LogP,[2]; previously reported results,−3.09 ± 0.03
